Where “and” joins values, the source holds several entries; their conditions need not be identical. Equal entries are not always repeated.
Legend:
Type in all cases: physicochemical
[1] = pKa of unformulated amine lipid by TNS fluorescence; settings: sodium phosphate buffer; Table 2; unformulated amine lipid, TNS; read-out: Lipid pKa
Method: The pKa of each amine lipid was determined according to the method in Jayaraman, et al. (Angew Chem Int Ed Engl 51(34), 2012, 8529-8533) with the following adaptations. The pKa was determined for unformulated amine lipid in ethanol. Lipid stock solutions (2.94 mM) were diluted into Sodium Phosphate Buffers (0.1 M, Boston Bioproducts) of different pH (pH-range: 4.5-9.0) yielding a final lipid concentration of approx. 100 μM. The test samples were supplemented with TNS {6-(p-Toluidino)-2-naphthalenesulfonic acid sodium salt}, incubated and the fluorescence intensity was measured using excitation and emission wavelengths of 321 nm and 448 nm, respectively. The recorded data were normalized and the respective pKa values were derived from sigmoidal fitting.

[2] = LNP encapsulation efficiency of RNA (Ribogreen fluorescence assay); settings: sgRNA:mRNA 1:2
Method: (§1) LNP compositions are analyzed for average particle size, polydispersity index (pdi), total RNA content, encapsulation efficiency of RNA, and zeta potential. LNP compositions may be further characterized by lipid analysis, AF4-MALS, NTA, and/or cryo-EM.
Encapsulation efficiency is calculated as (Total RNA−Free RNA)/Total RNA. A fluorescence-based assay (Ribogreen®, ThermoFisher Scientific) is used to determine total RNA concentration and free RNA. LNP samples are diluted appropriately with 1×TE buffer containing 0.2% Triton-X 100 to determine total RNA or 1×TE buffer to determine free RNA. Standard curves are prepared by utilizing the starting RNA solution used to make the compositions and diluted in 1×TE buffer+/−0.2% Triton-X 100. Diluted RiboGreen® dye (according to the manufacturer's instructions) is then added to each of the standards and samples and allowed to incubate for approximately 10 minutes at room temperature, in the absence of light. A SpectraMax M5 Microplate Reader (Molecular Devices) is used to read the samples with excitation, auto cutoff and emission wavelengths set to 488 nm, 515 nm, and 525 nm respectively. Total RNA and free RNA are determined from the appropriate standard curves. Alternatively, the total RNA concentration can be determined by a reverse-phase ion-pairing (RP-IP) HPLC method. Triton X-100 is used to disrupt the LNPs, releasing the RNA. The RNA is then separated from the lipid components chromatographically by RP-IP HPLC and quantified against a standard curve using UV absorbance at 260 nm.
(§2) In vivo editing efficiency for materials delivered with formulations including various amine lipid (or ionizable lipid) compounds in Experiments 1 through 14 as described in Tables 3 and 4 was assessed. Editing was measured using G000534 (SEQ ID NO: 5) which targets the rat TTR gene. Lipids described above were assessed for efficacy through in vivo editing experiments. LNPs were formulated at a 1:2 w/w ratio of sgRNA (SEQ ID NO: 5) and Cas9 mRNA (SEQ ID NO: 3). In Experiments 1 through 13, lipid components of the LNP are formulated in a molar ratio of 50% ionizable lipid, 38% cholesterol, 9% DSPC, and 3% PEG2K-DMG. In Experiment 14, lipid components of the LNP are formulated in a molar ratio of 50% ionizable lipid, 38% cholesterol, 9% DSPC, and 3% C13 Ether. The final LNPs used in different in vivo editing experiments were characterized to determine the encapsulation efficiency (% E), polydispersity index (PDI), and average particle size (Z-avg and number mean) according to the analytical methods provided above. The pKa values of each of the following ionizable lipids were also measured to be in the range of about 5.8 to about 7.6.
(§3) In vivo editing efficiency for materials delivered with formulations including various combinations of amine lipid (or ionizable lipid) and PEG lipid compounds was assessed as described in Tables 5 and 6. Editing was measured using G000534 (SEQ ID NO: 5) which targets the rat TTR gene. Lipids described above were assessed for efficacy through in vivo editing experiments. LNPs were formulated at a 1:2 w/w ratio of sgRNA (SEQ ID NO: 5) and Cas9 mRNA (SEQ ID NO:3). Lipid components of the LNP are formulated in a molar ratio of 50% ionizable lipid, 38% cholesterol, 9% DSPC, and 3% of various PEG lipids (e.g., PEG2K-DMG, C13 Ether, C14 Ether). The final LNPs used in different in vivo editing experiments were characterized to determine the encapsulation efficiency (% E), polydispersity index (PDI), and average particle size (Z-avg and number mean) according to the analytical methods provided above. The pKa values of each of the following ionizable lipids were also measured to be in the range of about 5.8 to about 7.6.
In vivo editing efficiency for materials delivered with formulations including various amine lipid (or ionizable lipid) compounds as described in Tables 7 and 8 was assessed. […]

[3] = LNP average particle size and polydispersity by dynamic light scattering; settings: sgRNA:mRNA 1:2
Method: Dynamic Light Scattering (“DLS”) is used to characterize the polydispersity index (“pdi” or “PDI”) and size of the LNPs of the present disclosure. DLS measures the scattering of light that results from subjecting a sample to a light source. PDI, as determined from DLS measurements, represents the distribution of particle size (around the mean particle size) in a population, with a perfectly uniform population having a PDI of zero.
as §1
Average particle size and polydispersity are measured by dynamic light scattering (DLS) using a Malvern Zetasizer DLS instrument. LNP samples were diluted with PBS buffer prior to being measured by DLS. Z-average diameter (“Z-avg”) which is an intensity-based measurement of average particle size was reported along with number average diameter (“number mean”) and PDI. A Malvern Zetasizer instrument is also used to measure the zeta potential of the LNP. Samples are diluted 1:17 (50 μL into 800 μL) in 0.1×PBS, pH 7.4 prior to measurement.
as §2, §3
In vivo editing efficiency for materials delivered with formulations including various amine lipid (or ionizable lipid) compounds as described in Tables 7 and 8 was assessed. Editing was measured using G000534 (SEQ ID NO: 5) which targets the rat TTR gene. Lipids described above were assessed for efficacy through in vivo editing experiments. LNPs were formulated at a 1:2 w/w ratio of sgRNA (SEQ ID NO: 5) and Cas9 mRNA (SEQ ID NO: 3). Lipid components of the LNP were formulated in a molar ratio of 50% ionizable lipid, 38% cholesterol, 9% DSPC, and 3% C13 Ether. […]

[4] = Table 3, Experiment 14, LNP with 3% C13 Ether
[5] = Table 3, Experiments 1-13, LNP 50% ionizable lipid, 38% cholesterol, 9% DSPC, 3% PEG2K-DMG
[6] = LNP with 50% ionizable lipid, 38% cholesterol, 9% DSPC, 3% C13 Ether (LNP #1, Compound 53: 3% PEG2K-DMG instead)

CCCCCCCCC(CCCCCCCC)OC(=O)CCCC(=O)OCC(COC(=O)CCCC(=O)OC(CCCCCCCC)CCCCCCCC)COC(=O)OCCCN(CC)CC [Compound 2, O,O′-(2-((((3-(diethylamino)propoxy)carbonyl)oxy)methyl)propane-1,3-diyl) di(heptadecan-9-yl) diglutarate]
pKa [1]: 6.23 | % E (encapsulation efficiency) [2, 4]: 99% | % E (encapsulation efficiency) [2, 5]: 98% | Number mean [3, 4]: 74 nm | PDI [3, 4]: 0.017 | Z-avg [3, 4]: 80 nm | Number mean [3, 5]: 65 nm and 72 nm | PDI [3, 5]: 0.01 | Z-avg [3, 5]: 79 nm and 76 nm

CCCCC/C=C\C/C=C\CCCCCCCC(=O)OCC(COC(=O)CCCCCC(=O)OCC(CCCC)CCCCCC)COC(=O)OCCCN(CC)CC (stereo not shown) [Compound 4, 1-(2-butyloctyl) 7-(3-(((3-(diethylamino)propoxy)carbonyl)oxy)-2-((((9Z,12Z)-octadeca-9,12-dienoyl)oxy)methyl)propyl) heptanedioate]
pKa [1]: 6.05 | % E (encapsulation efficiency) [2, 5]: 99% | Number mean [3, 5]: 78 nm and 83 nm | PDI [3, 5]: 0.02 and 0.04 | Z-avg [3, 5]: 95 nm and 91 nm

CCCCCCCCC(CCCCCCCC)OC(=O)CCCC(=O)OCC(COC(=O)CCCC(=O)OC(CCCCCCCC)CCCCCCCC)COC(=O)NCCN(CC)CC [Compound 6, O,O′-(2-((((2-(diethylamino)ethyl)carbamoyl)oxy)methyl)propane-1,3-diyl) di(heptadecan-9-yl) diglutarate]
pKa [1]: 6.35 | % E (encapsulation efficiency) [2, 6]: 99% | % E (encapsulation efficiency) [2, 4]: 98% | % E (encapsulation efficiency) [2, 5]: 99% | % E (encapsulation efficiency) ([2]; Table 5, PEG lipid C13 Ether): 97% | % E (encapsulation efficiency) ([2]; Table 5, PEG lipid C14 Ether): 98% | % E (encapsulation efficiency) ([2]; Table 5, PEG lipid PEG2K-DMG): 97% | % E (encapsulation efficiency) ([2]; Table 7, LNP with 3% C13 Ether): 98% | Number mean (average particle size) [3, 6]: 67 nm | PDI (polydispersity index) [3, 6]: 0.002 | Z-avg (average particle size) [3, 6]: 81 nm | Number mean [3, 4]: 68 nm | PDI [3, 4]: 0.02 | Z-avg [3, 4]: 73 nm | Number mean [3, 5]: 68 nm and 75 nm | PDI [3, 5]: 0.014 and 0.02 | Z-avg [3, 5]: 75 nm and 79 nm | Number mean ([3]; Table 5, PEG lipid C13 Ether): 72 nm | PDI ([3]; Table 5, PEG lipid C13 Ether): 0.01 | Z-avg ([3]; Table 5, PEG lipid C13 Ether): 79 nm | Number mean ([3]; Table 5, PEG lipid C14 Ether): 81 nm | PDI ([3]; Table 5, PEG lipid C14 Ether): 0.01 | Z-avg ([3]; Table 5, PEG lipid C14 Ether): 86 nm | Number mean ([3]; Table 5, PEG lipid PEG2K-DMG): 69 nm | PDI ([3]; Table 5, PEG lipid PEG2K-DMG): 0.04 | Z-avg ([3]; Table 5, PEG lipid PEG2K-DMG): 78 nm | Number mean ([3]; Table 7, LNP with 3% C13 Ether): 71 nm | PDI ([3]; Table 7, LNP with 3% C13 Ether): 0.01 | Z-avg ([3]; Table 7, LNP with 3% C13 Ether): 78 nm

CCCCC/C=C\C/C=C\CCCCCCCC(=O)OCC(CCCCCCCCC(=O)OCC(CCCC)CCCCCC)COC(=O)OCCCN(CC)CC (stereo not shown) [Compound 7, 11-((2-butyloctyl)oxy)-2-((((3-(diethylamino)propoxy)carbonyl)oxy)methyl)-11-oxoundecyl (9Z,12Z)-octadeca-9,12-dienoate]
pKa [1]: 6.09 | % E (encapsulation efficiency) [2, 5]: 98% | Number mean [3, 5]: 68 nm | PDI [3, 5]: 0.03 | Z-avg [3, 5]: 74 nm

CCCCCCCCC(CCCCCCCC)OC(=O)CCCCCCC(COC(=O)CCCC(=O)OC(CCCCCCCC)CCCCCCCC)COC(=O)OCCCN(CC)CC (stereo not shown) [Compound 8, 2-((((3-(diethylamino)propoxy)carbonyl)oxy)methyl)-9-(heptadecan-9-yloxy)-9-oxononyl heptadecan-9-yl glutarate]
pKa [1]: 5.85 | % E (encapsulation efficiency) [2, 5]: 98% | Number mean [3, 5]: 64 nm | PDI [3, 5]: 0.03 | Z-avg [3, 5]: 69 nm

CCCCC/C=C\C/C=C\CCCCCCCC(=O)OCC(CCCCCCCCC(=O)OC(CCCCCCCC)CCCCCCCC)COC(=O)OCCCN(CC)CC (stereo not shown) [Compound 9, 2-((((3-(diethylamino)propoxy)carbonyl)oxy)methyl)-11-(heptadecan-9-yloxy)-11-oxoundecyl (9Z,12Z)-octadeca-9,12-dienoate]
pKa [1]: 5.87 | % E (encapsulation efficiency) [2, 5]: 99% | Number mean [3, 5]: 61 nm and 65 nm and 62 nm | PDI [3, 5]: 0.03 | Z-avg [3, 5]: 68 nm and 73 nm

CCCCC/C=C\C/C=C\CCCCCCCC(=O)OCC(CCCCCCCCC(=O)OC(CCCCCCCC)CCCCCCCC)COC(=O)NCCN(CC)CC (stereo not shown) [Compound 10, 2-((((2-(diethylamino)ethyl)carbamoyl)oxy)methyl)-11-(heptadecan-9-yloxy)-11-oxoundecyl (9Z,12Z)-octadeca-9,12-dienoate]
pKa [1]: 6.37 | % E (encapsulation efficiency) [2, 5]: 97% | Number mean [3, 5]: 83 nm | PDI [3, 5]: 0.04 | Z-avg [3, 5]: 90 nm

CCCCC/C=C\C/C=C\CCCCCCCC(=O)OCC(CCCCCCCCC(=O)OC(CCCCCCCC)CCCCCCCC)COC(=O)OCCCN(C)CC (stereo not shown) [Compound 11, 2-((((3-(ethyl(methyl)amino)propoxy)carbonyl)oxy)methyl)-11-(heptadecan-9-yloxy)-11-oxoundecyl (9Z,12Z)-octadeca-9,12-dienoate]
pKa [1]: 6.13 | % E (encapsulation efficiency) [2, 5]: 99% | Number mean [3, 5]: 70 nm | PDI [3, 5]: 0.02 | Z-avg [3, 5]: 78 nm

CCCCC/C=C\C/C=C\CCCCCCCC(=O)OCC(CCCCC(=O)OC(CCCC)CCCC)COC(=O)NCCN(CC)CC (stereo not shown) [Compound 12, 2-((((2-(diethylamino)ethyl)carbamoyl)oxy)methyl)-7-(nonan-5-yloxy)-7-oxoheptyl (9Z,12Z)-octadeca-9,12-dienoate]
pKa [1]: 6.82 | % E (encapsulation efficiency) [2, 5]: 96% | Number mean [3, 5]: 101 nm | PDI [3, 5]: 0.03 | Z-avg [3, 5]: 108 nm
